Values of other authors in paper PMC11949389 (Polish Journal of Microbiology, 2025).
In brackets after ≈: the same amount, converted by molar mass. Read-outs that look alike come from different tables or passages of the source.

Tests used:
Enterococcus sp. = conditions: ref Caballero Gómez et al. 2022
Staphylococcus sp. = conditions: ref Caballero Gómez et al. 2022
Staphylococcus aureus [1] = tested on: Staphylococcus aureus
[2] = tested on: Mupirocin-susceptible Staphylococcus aureus; conditions: ref Kwiatkowski et al. 2019
[3] = tested on: Mupirocin-resistant Staphylococcus aureus; conditions: ref Kwiatkowski et al. 2019
Acinetobacter baumannii [4] = conditions: combined with ciprofloxacin, ref Aleksic Sabo et al. (2021)
Pseudomonas sp. = conditions: ref Caballero Gómez et al. 2022
Vibrio anguillarum = conditions: ref Rossi et al. 2021
Vibrio harveyi = conditions: ref Rossi et al. 2021
Candida albicans [5] = tested on: Candida albicans
Candida auris [6] = conditions: Candida auris; ref Shaban et al. 2020
Candida glabrata = conditions: Candida glabrata; ref Sharifzadeh et al. 2019; Iraji et al. 2020; Biernasiuk et al. 2022; Stringaro et al. 2022
Candida tropicalis = conditions: with voriconazole, C. tropicalis isolates; ref Sharifzadeh and Shokri (2021)
Staphylococcus aureus [7] = tested on: Staphylococcus aureus; remark: listed apart in the source
[8] = tested on: Methicillin-resistant Staphylococcus aureus; conditions: for Mechanisms of action: Methicillin-resistant Staphylococcus aureus
Acinetobacter baumannii [9] = conditions: ref Choudhary et al. 2022
[10] = tested on: Carbapenem-resistant Klebsiella pneumoniae (CRKP); conditions: ref Qian et al. 2020
Candida albicans [11] = conditions: ref Shaban et al. 2020
Candida auris [12] = conditions: ref Shaban et al. 2020
[13] = tested on: Vibrio anguillarum, and Vibrio harveyi; conditions: ref Rossi et al. (2021)
[14] = tested on: Singapore grouper iridovirus (SGIV); conditions: ref Wang et al. (2024)
[15] = tested on: carbapenem-resistant Klebsiella pneumoniae (CRKP) strains; conditions: CRKP; ref Qian et al. 2020
Streptococcus mutans = conditions: ref Jafri et al. (2019)

## C=CCc1ccc(O)c(OC)c1 [Eugenol]
Enterococcus sp.
  MIC/Sensitivity: 200 to 450 µg/mL
Staphylococcus sp.
  MIC/Sensitivity: 300 to 400 µg/mL
Staphylococcus aureus [1]; S. aureus, ref Sharma et al. (2023)
  MIC: 500–1,000 μg/ml
Staphylococcus aureus [1]; Staphylococcus aureus, ref Kwiatkowski et al. 2020, Sayout et al. 2020, Sousa Silveira et al. 2020, Macêdo et al. 2022, Noumi et al. 2023, Sharma et al. 2023
  MIC/Sensitivity: 24 to 11100 µg/mL
[2]
  MIC/Sensitivity: 2080 µg/mL (≈ 12.7 mM)
[3]
  MIC/Sensitivity: 8340 µg/mL (≈ 50.8 mM)
Acinetobacter baumannii [4]
  FICI: 0.25–0.32
Pseudomonas sp.
  MIC/Sensitivity: 300 to 400 µg/mL
Vibrio anguillarum
  MIC/Sensitivity: 308696 µg/mL (≈ 1880 mM)
Vibrio harveyi
  MIC/Sensitivity: 308696 µg/mL (≈ 1880 mM)
Candida albicans [5]; C. albicans, ref Jafri et al. (2019)
  planktonic MIC: 200 µg/mL
Candida albicans [5]; Candida albicans, ref Sharifzadeh et al. 2019, Iraji et al. 2020, Shaban et al. 2020, Stringaro et al. 2022, Biernasiuk et al. 2022
  MIC/Sensitivity: 500 to 2000 µg/mL
Candida auris [6]
  MIC/Sensitivity: 625 µg/mL (≈ 3.81 mM)
Candida glabrata
  MIC/Sensitivity: 1000 to 2000 µg/mL
Candida krusei; Candida krusei, ref Sharifzadeh et al. 2019, Iraji et al. 2020, Biernasiuk et al. 2022, Stringaro et al. 2022
  MIC/Sensitivity: 250 to 1000 µg/mL
Candida krusei; with voriconazole, C. krusei isolates, ref Sharifzadeh and Shokri (2021)
  FICI: 0.19–0.63
Candida tropicalis
  FICI: 0.25–0.88
Staphylococcus aureus [7]; ref Macêdo et al. 2022
  Mechanisms of action: • Inhibition of efflux pump
Staphylococcus aureus [7]; ref Mastoor et al. 2022
  Mechanisms of action: • Gene expression reduction linked to intracellular adhesion
Staphylococcus aureus [7]; ref Muniz et al. 2021
  Mechanisms of action: • Inhibition of norA efflux pump
[8]; MIC or 2 × MIC concentrations, established MRSA biofilms, ref El-Far et al. (2021)
  biofilm eradication: effectively eradicated established MRSA biofilms
[8]; ref Buru et al. 2022
  Mechanisms of action: • Downregulation of luxS gene • Inhibition of biofilm production • Enhancement of secondary metabolites • Upregulation of argC protein
[8]; ref El-Far et al. 2021
  Mechanisms of action: • Downregulation of biofilm-related genes (sarA, icaA, icaD) • Reduction of polysaccharide accumulation and cell adhesion
Acinetobacter baumannii [9]
  Mechanisms of action: • Reduction in exopolysaccharide production • Disruption and inhibition of biofilm • Downregulation of csuE gene
[10]
  Mechanisms of action: • Disruption of cell membrane • Reduction in intracellular pH and ATP levels • Cell membrane hyperpolarization • Downregulation of biofilm-related genes (pgaA, luxS, wbbM, wzm) • Upregulation of mrkA gene
Candida albicans [11]
  Mechanisms of action: • Reduced proteinase production
Candida auris [12]
  Mechanisms of action: • Reduced proteinase production and host cell adherence
[13]
  MIC: 940 to 7500 µM
[14]
  optimal concentration for inhibiting infection: 100 µM
[15]
  MIC: 200 µg/mL (≈ 1.22 mM)
Streptococcus mutans
  planktonic MIC: 200 µg/mL
